From the NIST ThermoML archive (doi:10.1016/j.jct.2014.12.020)
± gives the expanded uncertainty stated by the source.

Experiment: wn = mass fraction of the nth substance listed
Details: 100 kPa, Liquid; for mass density: Vibrating tube method; for viscosity: Concentric cylinders viscometry

CCC(=O)[O-].C[N+](C)(C)CCO [cholinium propanoate] + O
Details | mass density [kg/m3] | viscosity [mPa·s]
318.15 K, w2 = 0.003 | 1056.4 ± 1.3 | –
318.15 K, w2 = 0.01 | 1057 ± 1.3 | –
318.15 K, w2 = 0.021 | 1058.1 ± 1.3 | –
318.15 K, w2 = 0.025 | 1058.3 ± 1.3 | –
318.15 K, w2 = 0.046 | 1059.9 ± 1.3 | –
318.15 K, w2 = 0.064 | 1061.2 ± 1.3 | –
318.15 K, w2 = 0.1 | 1062.9 ± 1.2 | –
318.15 K, w2 = 0.127 | 1063.6 ± 1.2 | –
318.15 K, w2 = 0.208 | 1063.4 ± 1.2 | –
318.15 K, w2 = 0.262 | 1060.7 ± 1.1 | –
323.15 K, w2 = 0.003 | 1053.6 ± 1.3 | 455.4 ± 16
323.15 K, w2 = 0.01 | 1054.3 ± 1.3 | 360 ± 12
323.15 K, w2 = 0.021 | 1055.4 ± 1.3 | 267.4 ± 8.2
323.15 K, w2 = 0.025 | 1055.7 ± 1.3 | 241.9 ± 7.2
323.15 K, w2 = 0.046 | 1057.3 ± 1.3 | 153.1 ± 4
323.15 K, w2 = 0.064 | 1058.7 ± 1.3 | 108 ± 2.6
323.15 K, w2 = 0.1 | 1060.2 ± 1.2 | 61.3 ± 1.4
323.15 K, w2 = 0.127 | 1060.8 ± 1.2 | 44.8 ± 1
323.15 K, w2 = 0.208 | 1060.6 ± 1.2 | 20.4 ± 0.5
323.15 K, w2 = 0.262 | 1057.8 ± 1.1 | 14.7 ± 0.3
328.15 K, w2 = 0.003 | 1050.9 ± 1.3 | 336.7 ± 11
328.15 K, w2 = 0.01 | 1051.6 ± 1.3 | 270 ± 8.3
328.15 K, w2 = 0.021 | 1052.7 ± 1.3 | 203.8 ± 5.8
328.15 K, w2 = 0.025 | 1053 ± 1.3 | 185.5 ± 5.1
328.15 K, w2 = 0.046 | 1054.6 ± 1.3 | 119.9 ± 3
328.15 K, w2 = 0.064 | 1056 ± 1.3 | 86 ± 2
328.15 K, w2 = 0.1 | 1057.5 ± 1.2 | 50 ± 1.1
328.15 K, w2 = 0.127 | 1058 ± 1.2 | 36.9 ± 0.8
328.15 K, w2 = 0.208 | 1057.8 ± 1.2 | 17.2 ± 0.4
328.15 K, w2 = 0.262 | 1054.9 ± 1.1 | 12.5 ± 0.3
333.15 K, w2 = 0.003 | 1048.2 ± 1.3 | 253.8 ± 7.6
333.15 K, w2 = 0.01 | 1049 ± 1.3 | 206.2 ± 5.9
333.15 K, w2 = 0.021 | 1050.1 ± 1.3 | 158.1 ± 4.2
333.15 K, w2 = 0.025 | 1050.3 ± 1.3 | 144.6 ± 3.8
333.15 K, w2 = 0.046 | 1052.1 ± 1.3 | 95.3 ± 2.3
333.15 K, w2 = 0.064 | 1053.3 ± 1.3 | 69.4 ± 1.6
333.15 K, w2 = 0.1 | 1054.8 ± 1.2 | 41.2 ± 0.9
333.15 K, w2 = 0.127 | 1055.4 ± 1.2 | 30.7 ± 0.7
333.15 K, w2 = 0.208 | 1054.9 ± 1.2 | 14.6 ± 0.3
333.15 K, w2 = 0.262 | 1051.9 ± 1.1 | 10.6 ± 0.2
338.15 K, w2 = 0.003 | 1045.5 ± 1.3 | 194.8 ± 5.5
338.15 K, w2 = 0.01 | 1046.3 ± 1.3 | 160.1 ± 4.3
338.15 K, w2 = 0.021 | 1047.5 ± 1.3 | 124.5 ± 3.1
338.15 K, w2 = 0.025 | 1047.8 ± 1.3 | 114.4 ± 2.8
338.15 K, w2 = 0.046 | 1049.4 ± 1.3 | 76.7 ± 1.8
338.15 K, w2 = 0.064 | 1050.7 ± 1.3 | 56.7 ± 1.3
338.15 K, w2 = 0.1 | 1052.1 ± 1.2 | 34.3 ± 0.8
338.15 K, w2 = 0.127 | 1052.6 ± 1.2 | 25.8 ± 0.6
338.15 K, w2 = 0.208 | 1052 ± 1.2 | 12.5 ± 0.3
338.15 K, w2 = 0.262 | 1048.9 ± 1.1 | 9.3 ± 0.2
343.15 K, w2 = 0.003 | 1042.9 ± 1.3 | 151.9 ± 4
343.15 K, w2 = 0.01 | 1043.7 ± 1.3 | 126.2 ± 3.2
343.15 K, w2 = 0.021 | 1044.8 ± 1.3 | 99.3 ± 2.4
343.15 K, w2 = 0.025 | 1045.1 ± 1.3 | 91.8 ± 2.2
343.15 K, w2 = 0.046 | 1046.7 ± 1.3 | 62.5 ± 1.4
343.15 K, w2 = 0.064 | 1047.9 ± 1.3 | 46.8 ± 1
343.15 K, w2 = 0.1 | 1049.3 ± 1.2 | 28.8 ± 0.6
343.15 K, w2 = 0.127 | 1049.7 ± 1.2 | 21.9 ± 0.5
343.15 K, w2 = 0.208 | 1049.1 ± 1.2 | 10.8 ± 0.2
343.15 K, w2 = 0.262 | 1045.8 ± 1.1 | 8.1 ± 0.2
